Test results reported in article PMC11996864, “A small-molecule inhibitor of BCL10-MALT1 interaction abrogates progression of diffuse large B cell lymphoma” (The Journal of Clinical Investigation, 2025).
Values joined by “and” are separate entries in the source; they are usually repeats but may differ in a detail not shown here. Identical values can stand only once.

Experiments:
Assay type in all cases: cell-based, human
[1] = test system: TMD8 cells; experiment: Cell proliferation, trypan blue cell count; conditions: for TMD8 Viable Cells: Mepazine at 1 µM; for expansion of culture (proliferation): TMD8, single 1 μM dose, 12 days, result in words
Source text: (§1) Cell proliferation, viability, and apoptosis assays. Starting with ~20,000 DLBCL cells in 5% FBS
(§2) at day 0, cell number was counted using the trypan blue dye exclusion method with Vi-CELL cell

[2] = test system: OCI-Ly7 cells; experiment: Cell proliferation, trypan blue cell count; conditions: for expansion of culture (proliferation): OCI-Ly7, single 1 μM dose, 12 days, result in words; for Viable cell count: second block headed OCI-Ly1, Day 0, Mepazine at 1 µM
Source text: as §1, §2

[3] = test system: OCI-Ly1 cells; experiment: Cell proliferation, trypan blue cell count; conditions: for OCI-Ly1 Viable Cells: Mepazine at 1 µM; for expansion of culture (proliferation): OCI-Ly1, single 1 μM dose, 12 days, result in words
Source text: as §1, §2

[4] = test system: N4BP1 cleavage in Jurkat T cells; experiment: CD3/CD28-induced N4BP1 cleavage, Western blot (MALT1 protease activity); conditions: for N4BP1 cleavage ratio: Jurkat T cells, 1 μM pretreatment, + CD3/CD28; for N4BP1 cleavage in stimulated Jurkat T cells: result in words
Method: (§3) Western blot analysis of RelB and N4BP1 cleavage was used to test the effect of small molecules on MALT1 protease activity. To this end, 3 million Jurkat T cells were pretreated with compounds for 24 hours in serum-free media, and then 5 μM MG-132 was added for 1 hour before stimulation with CD3/CD28 (Stemcell Technologies, catalog 10971), and lysed in RIPA buffer (Millipore, catalog 20-188) with protease and phosphatase inhibitor cocktail (Pierce, catalog 78446). IKKα/β phosphorylation and IκBα phosphorylation were used as measures of MALT1 scaffolding activity, while ERK1/2 phosphorylation was used as a control. Two million Jurkat T cells were treated with 1 μM M1i-124, 1 μM M1i-124d1, or DMSO in serum-free media for 16 hours, stimulated with CD3/CD28 for 0, 5, 10, or 20 minutes, and then immediately lysed in RIPA buffer with protease and phosphatase inhibitors. For experiments evaluating RelB cleavage and phosphorylation of IκBα in TMD8 cells, cells were treated with compounds for 24 hours in media containing 5% FBS. For RelB Western blot analysis, 5 μM MG-132 (Cell Signaling Technology, catalog 2194s) was added 4 hours before lysis in RIPA lysis buffer with protease/phosphatase inhibitors.

[5] = test system: BCL10 and MALT1 protein in TMD8 cells; experiment: BCL10 and MALT1 protein levels, Western blot; conditions: 72 hours, result in words; for BCL10 and MALT1 protein levels: TMD8, 1 μM
Method: (§4) To test the possibility that M1i-124 destabilizes BCL10 and MALT1 within the cell as a consequence of disrupting BCL10-MALT1 interaction, we treated ABC-DLBCL cell lines (TMD8, OCI-Ly3) with M1i-124 for 72 hours and measured the cellular levels of the BCL10 and MALT1 proteins by Western blotting.
(§5) Figure 5 M1i-124 treatment leads to loss of BCL10 and MALT1 protein content in ABC-DLBCL cells. (A) Representative Western blots showing loss of BCL10 and MALT1 proteins, but not ERK1/2 protein, in TMD8 and OCI-Ly3 cells after 72 hours of treatment with 1 μM M1i-124. […] (B) Representative Western blots showing time-dependent loss of BCL10 and MALT1 in TMD8 cells treated with 1 μM M1i-124. (C) Representative Western blots showing dose-dependent loss of BCL10 and MALT1 proteins in TMD8 cells treated with […]. For A–C, band quantifications, normalized for GAPDH, are indicated below each blot. (D) Time-dependent change in BCL10 and MALT1 mRNA expression levels with 1 μM M1i-124 treatment in TMD8 cells. Statistical analysis was performed using unpaired t test between 0 hours and 72 hours (mean ± SEM; n = 3). *P < 0.05, ****P < 0.0001.

[6] = test system: BCL10 and MALT1 protein in OCI-Ly3 cells; experiment: BCL10 and MALT1 protein levels, Western blot; conditions: OCI-Ly3, 1 μM, 72 hours, result in words
Method: as §4, §5

[7] = test system: IL-2 secretion from Jurkat T cells; experiment: Secreted IL-2 ELISA after PMA/Iono; conditions: for IL-2: PMA/Iono; for IL-2 secretion from Jurkat T cells: result in words
Method: Cytokine ELISAs. Cytokines in cell culture supernatants were measured 20-24h after treatment with 0, 0.01, 0.03, 0.1, 0.3, 1, or 3 µM of compounds using the following ELISA kits according to the manufacturer’s instructions: Human IL-2 ELISA (BioLegend Cat# 431804), Human IL-6 ELISA (BioLegend Cat# 430504), and Human IL-10 ELISA (BioLegend Cat# 430604). […]
Jurkat T cells were pretreated with specific doses of compounds for 8 hours in serum-free media, then stimulated with PMA/ionomycin for 16 hours prior to the collection of supernatants. […]

[8] = test system: OCI-Ly3 cells; experiment: Cell proliferation, trypan blue cell count; conditions: Mepazine at 1 µM
[9] = test system: IL2 mRNA in Jurkat T cells; experiment: IL2 mRNA induction by PMA/Iono, qRT-PCR; conditions: for IL2 mRNA (normalized): Jurkat, + PMA/Iono; for PMA/Iono-induced IL2 gene expression: pretreatment 4 hours, result in words
Method: qRT-PCR. Jurkat T cells grown in serum free media for 4 hours with indicated inhibitors prior to stimulation with PMA/Ionomycin for 4 hours. […]
Total RNA extraction from the […]
Kit. RNA was transcribed into cDNA using High-Capacity cDNA Reverse Transcription Kit (Applied Biosystems, Cat# 4368814) according to manufacturer’s instructions. RT-PCR was performed using TaqMan Universal PCR Master Mix (Applied Biosystems, Cat# 4304437) and run on a StepOnePlus Real-Time PCR machine (Applied Biosystems). The following probes from ThermoFisher Scientific were used for qRT-PCR: IL2 TaqMan probe Hs00174114, IL6 TaqMan

[10] = test system: RelB cleavage in Jurkat T cells; experiment: CD3/CD28-induced RelB cleavage, Western blot (MALT1 protease activity); conditions: for RelB cleavage in stimulated Jurkat T cells: result in words
Method: as §3

Row | SMILES | TMD8 Viable Cells ([1]; Day 0) | expansion of culture (proliferation) [1] | expansion of culture (proliferation) [2] | Viable cell count [2] | OCI-Ly1 Viable Cells ([3]; Day 0) | expansion of culture (proliferation) [3] | N4BP1 cleavage ratio [4] | N4BP1 cleavage in stimulated Jurkat T cells [4] | BCL10 and MALT1 protein levels [5] | BCL10 and MALT1 protein levels [6] | IL-2 ([7]; Jurkat, 0.01uM) | IL-2 ([7]; Jurkat, 0.03uM) | IL-2 ([7]; Jurkat, 0.1uM) | IL-2 ([7]; Jurkat, 0.3uM) | IL-2 ([7]; Jurkat, 1uM) | IL-2 ([7]; Jurkat, 3uM) | IL-2 secretion from Jurkat T cells [7] | OCI-Ly3 Viable Cells ([8]; Day 0) | IL2 mRNA (normalized) ([9]; 1 μM) | PMA/Iono-induced IL2 gene expression [9] | further results
1 | COc1ccc(CNS(=O)(=O)c2ccc(Cc3ccc(S(=O)(=O)NCc4ccc(OC)cc4)cc3)cc2)cc1 [M1i-124d1] | 20000 | significant reduction in the expansion | no effect on expansion | 20000 and 40000 | 40000 and 20000 | no effect on expansion | 0.7459 and 0.3808 and 0.4872 and 0.5302 | suppressed the cleavage | lesser effect | lesser effect | 893.077 pg/mL and 1049.97 pg/mL and 735.049 pg/mL | 736.84 pg/mL and 714.598 pg/mL and 588.162 pg/mL | 433.515 pg/mL and 416.061 pg/mL and 330.961 pg/mL | 349.469 pg/mL and 340.243 pg/mL and 270.034 pg/mL | 458.584 pg/mL and 443.361 pg/mL and 398.637 pg/mL | 550.731 pg/mL and 484.757 pg/mL and 435.445 pg/mL | dose-dependent reduction in IL-2 secretion | 20000 | 0.5238 and 0.3763 and 0.462 | reduction in PMA/Iono–induced IL2 gene expression | OCI-Ly3 Viable Cells ([8]; Day 12): 340000 and 290000 and 320000; RelB cleavage in stimulated Jurkat T cells [10]: suppressed the cleavage
2 | CN1CCCC(CN2c3ccccc3Sc3ccccc32)C1 (centres unmarked) [Mepazine, mepazine, reference compound] | 20000 |  |  | 20000 | 40000 and 20000 |  | 1.53 and 0.8223 and 0.868 and 0.8072 |  | not observed | not observed |  |  |  |  |  |  |  | 20000 |  |  | TMD8 Viable Cells ([1]; Day 12): 830000 and 460000 and 590000; OCI-Ly1 Viable Cells ([3]; Day 7): 99000 and 98000 and 71000; OCI-Ly1 Viable Cells ([3]; Day 10): 280000 and 250000 and 290000; activity at 1 µM ([7]; Homo sapiens, Jurkat, PMA/Iono treated, 1 uM, Suppl Fig. 4A, read-out: IL-2 protein level (% of control)): 67.8%; IL-2 protein level (% of control) ([7]; PMA/Iono treated, 1 uM, Suppl Fig. 4A): 72.9318 % of control and 62.9989 % of control; IL2 mRNA (normalized) ([9]; 5 μM): 0.1528 and 0.1464 and 0.1468; Cl-RelB/FL-RelB ratio ([10]; Jurkat T cells, 1 μM pretreatment, + CD3/CD28): 0.1288 and 0.1917 and 0.1562 and 0.1166
3 | O=S(=O)(NCc1ccc2c(c1)OCO2)c1ccc(Cc2ccc(S(=O)(=O)NCc3ccc4c(c3)OCO4)cc2)cc1 [M1i-124] | 20000 | significant reduction in the expansion | no effect on expansion | 20000 and 40000 | 40000 and 20000 | no effect on expansion |  | suppressed the cleavage | potently induced the loss of both MALT1 and BCL10 proteins | potently induced the loss of both MALT1 and BCL10 proteins | 670.787 pg/mL and 749.967 pg/mL and 766.89 pg/mL | 564.302 pg/mL and 507.452 pg/mL and 318.494 pg/mL | 327.873 pg/mL and 411.405 pg/mL and 266.705 pg/mL | 173.693 pg/mL and 247.879 pg/mL and 193.913 pg/mL | 222.117 pg/mL and 210.011 pg/mL and 120.037 pg/mL | 304.615 pg/mL and 288.86 pg/mL and 235.369 pg/mL | dose-dependent reduction in IL-2 secretion | 20000 | 0.1638 and 0.218 and 0.2454 | reduction in PMA/Iono–induced IL2 gene expression | OCI-Ly1 Viable Cells ([3]; Day 12): 590000 and 720000 and 910000 and 860000 and 880000 and 890000; ERK1/2 protein levels ([5]; 1 μM): no change; IL-2 protein level (% of control) ([7]; PMA/Iono treated, Suppl Fig. 4A): 34.6066 % of control and 35.497 % of control and 25.5648 % of control; RelB cleavage in stimulated Jurkat T cells [10]: suppressed the cleavage
